Here are results for two molecules from patent US9873883B2, “Glyphosate resistant plants and associated methods” (Dow AgroSciences LLC, priority 2012, dated 2018).

Usually IC50 stands for the midpoint of a concentration-inhibition curve. As a reminder, the kcat/Km is the turnover number divided by the Michaelis constant.

Experiment [1] addresses T1, Brassica napus (canola) EPSP synthase DGT-3 (GENBANK P17688) variant DGT-3 v6 (G→A) (Brassica napus, UniProt P17688, G173A).
T1 construct: made in house; host or cells: E. coli Rosetta2 (DE3)
T1 sequence (P17688 73-516 G173A): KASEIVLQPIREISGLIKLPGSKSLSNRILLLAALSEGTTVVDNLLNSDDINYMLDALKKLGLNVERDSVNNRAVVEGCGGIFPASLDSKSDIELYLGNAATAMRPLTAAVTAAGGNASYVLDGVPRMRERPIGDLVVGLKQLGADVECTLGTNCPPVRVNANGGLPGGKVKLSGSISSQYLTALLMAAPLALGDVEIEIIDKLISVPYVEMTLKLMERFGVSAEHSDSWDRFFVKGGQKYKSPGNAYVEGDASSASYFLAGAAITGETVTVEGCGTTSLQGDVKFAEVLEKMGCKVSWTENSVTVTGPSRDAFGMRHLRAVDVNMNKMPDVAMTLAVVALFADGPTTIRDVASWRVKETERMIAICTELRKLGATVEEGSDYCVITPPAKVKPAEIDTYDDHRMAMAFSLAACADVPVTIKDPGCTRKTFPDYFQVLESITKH
The experiment can be described thus: In vitro kinetic assay (inorganic phosphate production, malachite green). Particulars: for IC50: IC50 (glyphosate). The experiment is classed as biochemical. An excerpt:
(§1) The following Class I enzymes: DGT-1 from Glycine max, DGT-3 from Brassica napus (GENBANK ACC NO: P17688), and DGT-7 from Triticum aestivum (GENBANK ACC NO: EU977181) were used as a comparison. The Class I EPSP synthase enzymes and mutant variants thereof were synthesized and evaluated. A mutation introduced into the plant EPSP synthase enzymes consisted of the Glycine to Alanine mutation made within the EPSP synthase enzyme at a similar location as that of the G96A mutation from the E. coli version of the enzyme. In addition, Threonine to Isoleucine and Proline to Serine mutations were introduced within these Class I EPSP synthase enzymes at analogous positions as that of amino acid 97 (T to I) and amino acid 101 (P to S) in the EPSP synthase of E. coli as described in Funke et al., (2009).
(§2) The location of the amino acid residue which was mutated from glycine to alanine is indicated by the first asterisk. The location of the amino acid residue which was mutated from threonine to isoleucine is indicated by the second asterisk. The location of the third amino acid residue which was mutated from proline to serine is indicated by the third asterisk. These mutations were introduced into different versions of DGT-1, DGT-3, and DGT-7. The different versions of the genes which contain the mutations are described in more detail below.
(§3) Additional constructs containing the dgt-1, dgt-3 and dgt-7 were synthesized. These constructs were used for in vitro testing of the dgt-1 v5, dgt-1 v6, dgt-1 v7, dgt-1 v8, dgt-3 v6, dgt-3 v7, dgt-3 v8, dgt-7 v5, dgt-7 v6, dgt-7 v7, and dgt-7 v8 gene sequences were outsourced to GeneArt for synthesis and cloning. The synthesized genes were cloned into the pET28 expression vector. The resulting constructions were labeled as pDAB102028 containing dgt-1 v5, pDAB102029 containing dgt-1 v6, pDAB102032 containing dgt-1 v7, pDAB102034 containing dgt-1 v8, pDAB100429 containing dgt-3 v6, pDAB100442 containing dgt-3 v7, pDAB100430 containing dgt-3 v8, pDAB102036 containing dgt-7 v5, pDAB102038 containing dgt-7 v6, pDAB102040 containing dgt-7 v7, and pDAB102042 containing dgt-7 v8.
(§4) Recombinant DGT proteins were overexpressed in Rosetta2™ (DE3) cells (Novagen, Madison, Wis.) from the constructs described above. A single colony was used to inoculate 50 mL starter cultures of LB containing chloramphenicol (25 μg/mL) and kanamycin (50 μg/mL) which were cultivated overnight at 37° C. The overnight cultures were used to inoculate 1 L of LB containing chloramphenicol (25 μg/mL) and kanamycin (50 μg/mL). The cultures were grown at 37° C. to an O.D.600=0.6 then placed in an ice water bath for 10 minutes. Expression of the target proteins was achieved by addition of IPTG to a final concentration of 500 μM. Induction was allowed to proceed overnight at 20° C. followed by harvesting via centrifugation at 8,000 rpm for 20 minutes. The cell pellets were stored at −80° C. until required for purification. All purification steps were carried out at 4° C.
(§5) Cell pellets from 1 L cultures were resuspended in 20-30 mL Buffer A (50 mM HEPES pH 7.5, 150 mM KCl, 2 mM DTT, 1 mM EDTA, 20 mM imidazole, and 5% glycerol). COMPLETE™ protease inhibitor cocktail (1 tablet/50 mL, Roche, Indianapolis, Ind.) and lysozyme (1 mg/mL, Sigma-Aldrich, St. Louis, Mo.) were then added and the suspension was stirred for 20 minutes. Cell lysis was performed using a Branson Sonifier 250 (3×60 second bursts) followed by removal of the cell debris by centrifugation at 16,000 rpm for 45 minutes. DGT enzymes were purified to homogeneity in one step via immobilized metal affinity chromatography (IMAC) using a 5 mL HisTrap FF crude column. The column was equilibrated in Buffer A and the sample was loaded in the same buffer. The column was then washed with 10 column volumes of Buffer A followed by elution in a 0-100% Buffer B (50 mM HEPES pH 7.5, 200 mM KCl, 2 mM DTT, 1 mM EDTA, 500 mM imidazole, and 5% glycerol) linear gradient over 25 column volumes. […]

Experiment [2] has as its target T2, Brassica napus (canola) EPSP synthase DGT-3 (GENBANK P17688) variant DGT-3 v8 (T→I, P→S; TIPS) (Brassica napus, UniProt P17688, P178S/T174I).
T2 construct: made in house; host or cells: E. coli Rosetta2 (DE3)
T2 sequence (P17688 73-516 T174I/P178S): T1 sequence (P17688 73-516 G173A) with A101G, T102I, P106S
The experiment is described as above. The experiment is classed as biochemical.
From the text: as §1, §2, §3, §4, §5

Where a chain is given by its changes, count along the chain named.

For the molecule `O=C(O)CNCP(=O)(O)O` [glyphosate, N-(phosphonomethyl)glycine], the concentration for half-maximal inhibition (IC50) in experiment [1] (at 60 μM PEP) is 8.7 mM; in experiment [1] (at 1 mM PEP), 15.8 mM; in experiment [2] (IC50 (glyphosate), at 60 μM PEP) it was 4.8 mM; in experiment [2] (IC50 (glyphosate), at 1 mM PEP) it was 13.3 mM; in experiment [2] (tolerance to glyphosate, PEP concentration not given), 3 to 6 mM.

For `C=C(OP(=O)(O)O)C(=O)O` [PEP, phosphoenolpyruvate], the “increase of Km for PEP” value in experiment [1] (G to A mutation vs un-mutated) is reported as around 8 fold. Moreover, the catalytic efficiency (kcat/Km) in experiment [2] (PEP, pH 7.5, 1 mM S3P) is 32900 M⁻¹ s⁻¹.
